Converted amounts (≈) assume the structure as drawn.

Results on 12 compounds are retold here after ChEMBL document CHEMBL4020835, “Optimization of Metabolic and Renal Clearance in a Series of Indole Acid Direct Activators of 5'-Adenosine Monophosphate-Activated Protein Kinase (AMPK)” (J Med Chem, 2018).

The nature of series [1]: Thermodynamic solubility of the compound in sodium phosphate buffer at pH 7.4 after 24 hrs by nitrogen detection method. The series is classed as physicochemical. As to conditions: read-out: Therm_solubility.
Series [2] can be described thus: Tmax in Wistar Han rat at 3 mg/kg via oral gavage by LC-MS/MS analysis. As to conditions: in vivo. The series is classed as ADME, organism-based.
Series [3] deals with Rattus norvegicus. The series is described as follows: (§1) Oral bioavailability in Wistar Han rat at 3 mg/kg via gavage measured up to 24 hrs post dose by LC-MS/MS analysis. The series is classed as ADME, organism-based. As to conditions: in vivo, 24 h.
A short description of series [4]: Volume of distribution at steady state in Wistar Han rat at 1 mg/kg, iv via bolus dose measured up to 24 hrs post dose by LC-MS/MS analysis. The series is classed as ADME, organism-based. As to conditions: in vivo, read-out: Vdss.
A short description of series [5]: physchem.
A short description of series [6]: AUC (0 to 24 hrs) in cynomolgus monkey at 3 mg/kg via oral gavage measured up to 24 hrs post dose by LC-MS/MS analysis. The series is classed as ADME, organism-based, Macaca fascicularis. Also on record: time < 24 hr, dose 3 mg/kg, route oral. As to conditions: in vivo.
Series [7] in a line: Volume of distribution at steady state in cynomolgus monkey at 1 mg/kg, iv via bolus dose measured up to 24 hrs post dose by LC-MS/MS analysis. Type of series: ADME, organism-based, Macaca fascicularis. As to conditions: in vivo, read-out: Vdss.
A short description of series [8]: Tmax in cynomolgus monkey at 3 mg/kg via oral gavage by LC-MS/MS analysis. The series is classed as ADME, organism-based, Macaca fascicularis. As to conditions: in vivo.
A short description of series [9]: Cmax in Wistar Han rat at 3 mg/kg via oral gavage measured up to 24 hrs post dose by LC-MS/MS analysis. On the set-up: dose 3 mg/kg, route oral. Type of series: ADME, organism-based. As to conditions: in vivo.
A short description of series [10]: Oral bioavailability in cynomolgus monkey at 3 mg/kg via gavage measured up to 24 hrs post dose by LC-MS/MS analysis. The series is classed as ADME, organism-based, Macaca fascicularis. As to conditions: in vivo.
The conditions of series [11]: rat, in vivo, iv, 1 mg/kg, 24 h.
Series [12] is described as follows: physchem. As to conditions: buffer, pH 7.4.
Series [13] deals with Rattus norvegicus. The series is described as follows: (§2) AUC (0 to 24 hrs) in Wistar Han rat at 1 mg/kg, iv via bolus dose measured up to 24 hrs post dose by LC-MS/MS analysis. As to conditions: in vivo, 24 h. Type of series: ADME, organism-based. Also on record: time < 24 hr, dose 1 mg/kg, route intravenous.
Series [14] in a line: AUC (0 to 24 hrs) in cynomolgus monkey at 1 mg/kg, iv via bolus dose measured up to 24 hrs post dose by LC-MS/MS analysis. As to conditions: in vivo. Type of series: ADME, organism-based, Macaca fascicularis. On the set-up: time < 24 hr, dose 1 mg/kg, route intravenous.
Series [15] in a line: Cmax in cynomolgus monkey at 3 mg/kg via oral gavage measured up to 24 hrs post dose by LC-MS/MS analysis. The series is classed as ADME, organism-based, Macaca fascicularis. On the set-up: dose 3 mg/kg, route oral. As to conditions: in vivo.
A short description of series [16]: Drug excretion in cynomolgus monkey urine assessed as compound recovered at 1 mg/kg, iv measured over 24 hrs by LC/MS analysis. The series is classed as ADME, organism-based, Macaca fascicularis. As to conditions: read-out: Drug recovery.
Series [17] deals with Rattus norvegicus. The series is described as follows: (§3) AUC (0 to 24 hrs) in Wistar Han rat at 3 mg/kg via oral gavage measured up to 24 hrs post dose by LC-MS/MS analysis. As to conditions: in vivo, 24 h. Type of series: ADME, organism-based. On the set-up: dose 3 mg/kg, time < 24 hr, route oral.
The nature of a further series: in vivo. As to conditions: Wistar Han, rat, urine, iv, 1 mg/kg.
The nature of series [18]: as §1. Type of series: ADME, organism-based. As to conditions: Wistar Han, in vivo.
A short description of series [19]: as §2. Also on record: time < 24 hr, dose 1 mg/kg, route intravenous. As to conditions: Wistar Han, in vivo. The series is classed as ADME, organism-based.
Series [20] in a line: as §3. Type of series: ADME, organism-based. On the set-up: dose 3 mg/kg, time < 24 hr, route oral. As to conditions: Wistar Han, in vivo.

One may read the Tmax as the time at which the peak concentration occurs. The term pKa denotes the negative logarithm of the acid dissociation constant. One may read the AUC(0-t) as the area under the concentration-time curve up to a stated or last time point. As a reminder, the Cmax is the highest concentration seen after dosing. Usually bioavailability stands for the share of a dose that reaches the circulation, judged against a reference dose that is usually intravenous. Usually logD stands for lipophilicity at a set pH, counting ionised and neutral species. One may read the AUC as the area under the concentration-time curve, a measure of exposure. Regarding `COc1nc(N(C)C)ccc1-c1cc2c(C(=O)O)c[nH]c2cc1Cl`, the solubility thermodynamic at 24 h in series [1] came out at 120 µM (≈ 41.5 µg/mL). In addition, the Tmax was 5.5 h in series [2] and 1.5 h in series [8]. This compound had a F in the series on Rattus norvegicus [3] of 52%. Moreover, the Vd in series [4] is 0.1 L/kg; in [7], 0.46 L/kg. For the same compound, in the series “physchem [5]”, the pKa was 2.6 to 4.9. In addition, the area under the curve AUC(0-t) at 24 h in series [6] came to 31200 ng·h/mL; in series [14], 15500 ng·h/mL. The maximum concentration (Cmax) in series [9] was determined as 10200 ng/mL; in series [15], 2540 ng/mL. For the same compound, the bioavailability in [10] was 67%. Further, the Drug recovery in [11] was 1 ng/mL. In the series “physchem [12]”, this compound showed a log distribution coefficient (logD) of 2.3. For the same compound, the exposure (AUC) in the series on Rattus norvegicus [13] worked out at 254000 ng·h/mL; in the series on Rattus norvegicus [17] it was 160000 ng·h/mL. Further, the dose excreted at 24 h in series [16] was less than 1%.

In the series “physchem [5]”, `COc1ccc(-c2cc3c(C(=O)O)c[nH]c3cc2Cl)c(OC)n1` showed a pKa of 4.8. The same compound displayed a logD in “physchem [12]” of 2.1.

Take `O=C(O)c1c[nH]c2cc(F)c(-c3ccc([C@@H]4CCCCO4)cc3)c(F)c12`: the dose excreted at 24 h worked out at 1.6% in the series “in vivo” and 2.2% in series [16]. Also, the solubility thermodynamic at 24 h in [1] is 14 µM (≈ 5 µg/mL). For the same compound, the Tmax in series [2] amounted to 2.7 h; in series [8], 2 h. The bioavailability in series [18] was determined as 26%; in series [10] it was 85%. Further, the Vd in series [4] amounted to 0.31 L/kg; in [7], 0.3 L/kg. For the same compound, the pKa in “physchem [5]” was found to be 5. In addition, the AUC(0-t) at 24 h in series [6] came to 91600 ng·h/mL; in [19], 16400 ng·h/mL; in [14], 35900 ng·h/mL; in [20], 12800 ng·h/mL. The maximum concentration (Cmax) in [9] came out at 1890 ng/mL; in series [15] it was 8180 ng/mL. In the series “physchem [12]”, this compound gave a logD of 1.9.

In turn, `COc1ccc(-c2cc3c(C(=O)O)c[nH]c3cc2Cl)cn1` registered a pKa in the series “physchem [5]” of 2.4 to 4.9. For the same compound, the logD in the series “physchem [12]” is 1.8.

With `O=C(O)c1c[nH]c2cc(Cl)c(-c3ccc(OCCO)cc3)cc12`, the dose excreted at 24 h in the series “in vivo” came to 10%. The compound also showed a pKa in the series “physchem [5]” of 4.8. Moreover, in “physchem [12]”, the log distribution coefficient (logD) amounted to 1.1.

On to `O=C(O)c1c[nH]c2cc(Cl)c(-c3ccc(C4CCCCO4)cc3)cc12` (stereo unspecified), for which the pKa in “physchem [5]” stood at 4.9. In the series “physchem [12]”, this compound had a logD of 2.8.

Regarding `O=C(O)c1c[nH]c2cc(F)c(-c3ccc([C@H]4CCCCO4)cc3)c(F)c12`, the logD in the series “physchem [12]” came to 2.

For `N#Cc1cc2[nH]cc(C(=O)O)c2cc1-c1ccc(C2(O)CCC2)cc1`, the pKa in the series “physchem [5]” turned out to be 4.6. Moreover, the pH-dependent lipophilicity (logD) in the series “physchem [12]” amounted to 1.1.

As for `O=C(O)c1c[nH]c2cc(F)c(-c3ccc(C4(O)CCC4)cc3)c(F)c12`, the dose excreted at 24 h in the series “in vivo” worked out at 10.7%. Further, the pKa in “physchem [5]” came out at 4.9. This compound also yielded a logD in “physchem [12]” of 1.3.

In the case of `COCCOc1ccc(-c2cc3c(C(=O)O)c[nH]c3cc2Cl)cc1`, in the series “physchem [5]”, the pKa is 5. In the series “physchem [12]”, this compound displayed a logD of 1.8.

The compound `O=C(O)c1c[nH]c2cc(Cl)c(-c3ccc(OCCCN4CCOCC4)cc3)cc12` came in with a dose excreted at 24 h in the series “in vivo” of 12%. In the series “physchem [5]”, this compound gave a pKa of 5.4 to 7.1. In addition, in the series “physchem [12]”, the logD was found to be 1.8.

On to `CN(C)c1ccc(-c2cc3c(C(=O)O)c[nH]c3cc2Cl)cn1`, for which the pKa in the series “physchem [5]” is 4.7 to 6.2. Moreover, the log distribution coefficient (logD) in “physchem [12]” was determined as 1.7.
